US20120321685A1, “COMPOSITIONS CONTAINING OILS HAVING A SPECIFIC GRAVITY HIGHER THAN THE SPECIFIC GRAVITY OF WATER” (SOL-GEL TECHNOLOGIES LTD., priority 2001, published 2012)

Tests used:
[1] = Solubility of BMDBM and other solid sunscreen actives in different solvents; type: physicochemical; conditions: in Dipropylene glycol Dibenzoate (Finetex Finsolv PG-22), 25° C.
Protocol: The solubility of commonly used sunscreen active ingredients was tested by heating a solution of below-mentioned solvents or their mixture to 50° C. under stirring. Access amount of the sunscreen active was added. After thorough mixing to dissolve the solid, the solution was allowed to cool to 25° C. over night in the water bath under constant oscillation and the access active precipitated. The solution was filtered using 0.2 μm PTFE filter, and the concentration of BMDBM was determined by HPLC equipped with UV diode array detector against standard solution of BMDBM. For the other sunscreen actives, the concentration of the active was determined spectroscopically against standard solution of the active. Table 1 lists the solubility values obtained for BMDBM and other sunscreen actives in different commercially available solvents.

[2] = cited from earlier work
[3] = Solubility of benzoyl peroxide in Finsolve PG-22; type: physicochemical
Protocol: The solubility of benzoyl peroxide in dipropylene glycol dibenzoate (Finsolv PG 22) was measured in a method similar to Example 1. Benzoyl peroxide concentration was determined by titration according to USP. The solubility of benzoyl peroxide in Finsolve PG-22 is 6 wt. %.

SMILES	Solvent specific gravity, acc. to D25/25 [2]	also measured
COc1ccc(C(=O)c2ccccc2)c(O)c1 [Benzophenone-3]		Solubility, concentration [1]: 26.6 wt %
CCC(=O)OCc1ccccc1 [Benzyl propionate]	1.028-1.032	
CC(COC(=O)c1ccccc1)OCC(C)OC(=O)c1ccccc1 (stereo not drawn) [Dermol DPG-2B, Dipropylene glycol Dibenzoate]	1.117	
CCOC(=O)c1ccccc1 [Ethyl benzoate]	1.043-1.046	
CCOC(=O)c1ccccc1O [Ethyl salicylate]	1.126-1.130	
CC(COC(=O)c1ccccc1)OCC(C)OC(=O)c1ccccc1 (stereo not drawn) [Finsolv PG-22, Dipropylene glycol Dibenzoate]	1.12	
Cc1ccc(/C=C2/C(=O)C3(C)CCC2C3(C)C)cc1 (stereo not drawn) [Methyl benzyledene camphor]		Solubility, concentration [1]: 30.16 wt %
O=C(OOC(=O)c1ccccc1)c1ccccc1 [benzoyl peroxide]		Solvent quality of dipropylene glycol dibenzoate for BPO ([3]; in dipropylene glycol dibenzoate): good solvent; Solubility of benzoyl peroxide in Finsolve PG-22 ([3]; in dipropylene glycol dibenzoate (Finsolv PG 22), method similar to Example 1, titration according to USP): 6 wt. %
